The source of these data is ChEMBL document CHEMBL1201862, “PubChem BioAssay data set” (2004).

Calls of active or inactive are those of the source.

One test has as its target T1, Caspase-3 (Homo sapiens, UniProt P42574).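 Further: Dose-response selectivity test against caspase-3 for candidate inhibitors of sentrin-specific proteases (SENPs).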
T1 sequence (P42574 whole entry): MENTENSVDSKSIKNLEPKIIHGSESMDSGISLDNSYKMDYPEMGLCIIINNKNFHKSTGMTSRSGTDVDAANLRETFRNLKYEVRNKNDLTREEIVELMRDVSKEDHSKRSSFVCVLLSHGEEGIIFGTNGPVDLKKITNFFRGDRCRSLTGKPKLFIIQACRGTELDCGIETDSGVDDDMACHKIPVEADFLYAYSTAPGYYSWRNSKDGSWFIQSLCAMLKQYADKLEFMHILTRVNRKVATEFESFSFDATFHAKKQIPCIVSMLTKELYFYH
The test is classed as functional.

Test [1] concerns the target T2, Sentrin-specific protease 6 (Homo sapiens, UniProt Q9GZR1).
T2 sequence (Q9GZR1 whole entry): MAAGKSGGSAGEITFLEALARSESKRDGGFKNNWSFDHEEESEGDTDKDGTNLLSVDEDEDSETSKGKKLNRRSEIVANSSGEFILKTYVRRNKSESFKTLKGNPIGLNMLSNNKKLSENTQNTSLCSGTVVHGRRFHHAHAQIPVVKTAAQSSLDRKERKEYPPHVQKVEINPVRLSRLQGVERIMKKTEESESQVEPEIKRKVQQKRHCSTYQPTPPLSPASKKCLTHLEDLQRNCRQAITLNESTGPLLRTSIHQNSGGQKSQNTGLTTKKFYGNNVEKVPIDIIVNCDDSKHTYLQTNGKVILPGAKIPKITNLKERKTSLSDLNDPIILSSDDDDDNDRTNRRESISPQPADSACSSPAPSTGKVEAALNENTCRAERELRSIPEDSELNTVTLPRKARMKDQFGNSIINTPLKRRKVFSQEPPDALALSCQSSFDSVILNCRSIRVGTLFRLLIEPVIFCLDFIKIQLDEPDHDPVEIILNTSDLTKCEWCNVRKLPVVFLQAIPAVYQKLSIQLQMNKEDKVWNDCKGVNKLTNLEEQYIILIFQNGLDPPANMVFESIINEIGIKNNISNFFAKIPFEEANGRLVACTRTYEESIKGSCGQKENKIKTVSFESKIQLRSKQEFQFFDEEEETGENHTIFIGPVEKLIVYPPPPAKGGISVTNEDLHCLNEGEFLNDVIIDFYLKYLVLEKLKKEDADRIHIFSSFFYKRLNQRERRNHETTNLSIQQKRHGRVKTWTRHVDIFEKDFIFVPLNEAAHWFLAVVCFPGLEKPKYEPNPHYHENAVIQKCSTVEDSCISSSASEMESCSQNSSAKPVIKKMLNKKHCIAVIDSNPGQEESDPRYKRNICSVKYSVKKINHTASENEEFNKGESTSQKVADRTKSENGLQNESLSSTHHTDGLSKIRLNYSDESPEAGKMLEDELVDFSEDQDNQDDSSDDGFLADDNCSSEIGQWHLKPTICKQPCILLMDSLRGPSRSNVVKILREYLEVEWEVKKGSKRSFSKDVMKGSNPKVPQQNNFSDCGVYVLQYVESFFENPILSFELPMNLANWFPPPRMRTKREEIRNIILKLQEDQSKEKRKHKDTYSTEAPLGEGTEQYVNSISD
Briefly: SAR Analysis of small molecule inhibitors of Sentrin-specific protease 6 (SENP6) using a Luminescent assay. [Related pubchem assays (depositor defined):AID2582, AID2599]. It counts as functional.

The target of test [2] is Serine/threonine-protein kinase PAK 4 (Homo sapiens, UniProt O96013). It counts as functional.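 Further: value obtained within a kinome profiling panel in which PAK4 was one of the panel members.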
Test [3] concerns the target Insulin-like growth factor 1 receptor (Homo sapiens, UniProt P08069). Briefly: Navigating the Kinome. Panel member name: IGF1R. It counts as functional.
The target in test [4] is Protein kinase C theta type (Homo sapiens, UniProt Q04759). Briefly: Navigating the Kinome. Panel member name: PRKCQ. It counts as functional.
Test [5] concerns the target Serine/threonine-protein kinase D3 (Homo sapiens, UniProt O94806). The test is classed as functional.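 Further: determined within a kinase panel screen, with PRKCN as the panel member.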
The target of test [6] is ALK tyrosine kinase receptor (Homo sapiens, UniProt Q9UM73). The test is classed as functional.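 Further: ALK tested as one member of a kinase panel screen.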
For test [7], the target named is Mitogen-activated protein kinase kinase kinase kinase 2 (Homo sapiens, UniProt Q12851). The test is classed as functional.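 Further: measured as one member of a kinome-wide kinase panel, with MAP4K2 as the panel entry.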
For test [8], the target named is Calcium/calmodulin-dependent protein kinase type II subunit alpha (Homo sapiens, UniProt Q9UQM7). Briefly: Navigating the Kinome. Panel member name: CAMK2A. It counts as functional.
The target of test [9] is Death-associated protein kinase 3 (Homo sapiens, UniProt O43293). It counts as functional.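 Further: measured as one member of a kinome-wide profiling panel.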
Test [10] deals with Dual specificity protein phosphatase 3 (Homo sapiens, UniProt P51452). Briefly: VHR1 phosphatase inhibitors, primary screen, biochemical, absorbance, uHTS (AID 1654).
A further test deals with T3, Insulin-degrading enzyme (Homo sapiens, UniProt P14735).
T3 sequence (P14735 whole entry): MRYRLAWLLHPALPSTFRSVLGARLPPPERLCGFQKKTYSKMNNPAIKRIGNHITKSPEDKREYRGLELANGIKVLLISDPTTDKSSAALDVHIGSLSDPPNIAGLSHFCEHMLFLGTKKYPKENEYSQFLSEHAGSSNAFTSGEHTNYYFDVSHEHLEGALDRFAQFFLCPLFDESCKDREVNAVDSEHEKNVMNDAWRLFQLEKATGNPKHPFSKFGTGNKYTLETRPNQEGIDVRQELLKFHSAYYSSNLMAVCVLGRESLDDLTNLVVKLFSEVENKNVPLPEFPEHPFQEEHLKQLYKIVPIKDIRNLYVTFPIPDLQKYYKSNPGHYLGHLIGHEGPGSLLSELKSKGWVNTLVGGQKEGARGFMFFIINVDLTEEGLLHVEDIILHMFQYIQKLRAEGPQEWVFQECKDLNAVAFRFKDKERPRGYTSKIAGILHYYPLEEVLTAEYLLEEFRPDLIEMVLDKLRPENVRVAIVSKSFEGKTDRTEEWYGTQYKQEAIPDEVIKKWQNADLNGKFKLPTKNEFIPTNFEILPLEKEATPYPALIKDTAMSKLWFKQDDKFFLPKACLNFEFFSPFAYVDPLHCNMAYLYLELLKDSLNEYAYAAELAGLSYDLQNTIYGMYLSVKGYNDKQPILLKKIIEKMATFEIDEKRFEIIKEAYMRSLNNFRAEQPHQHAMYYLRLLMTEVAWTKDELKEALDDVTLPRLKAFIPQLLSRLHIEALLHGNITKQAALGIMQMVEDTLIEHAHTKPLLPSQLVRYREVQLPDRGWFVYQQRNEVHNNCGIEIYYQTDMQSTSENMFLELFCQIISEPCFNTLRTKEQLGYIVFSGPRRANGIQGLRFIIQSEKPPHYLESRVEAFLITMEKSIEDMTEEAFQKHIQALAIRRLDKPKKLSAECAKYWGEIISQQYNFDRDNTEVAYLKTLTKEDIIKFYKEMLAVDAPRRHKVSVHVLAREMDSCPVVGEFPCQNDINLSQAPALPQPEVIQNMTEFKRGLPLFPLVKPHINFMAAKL
Nature of the test: cellular IDE activation of Abeta substrate cleavage – fluorescence polarization, HEK cells, dose response (AID 588439). It counts as functional, cell-based. (Polarisation of emitted light reports the rotation of a fluorescent probe.)

Calcium/calmodulin-dependent protein kinase type II subunit alpha, sequence (Q9UQM7 whole entry): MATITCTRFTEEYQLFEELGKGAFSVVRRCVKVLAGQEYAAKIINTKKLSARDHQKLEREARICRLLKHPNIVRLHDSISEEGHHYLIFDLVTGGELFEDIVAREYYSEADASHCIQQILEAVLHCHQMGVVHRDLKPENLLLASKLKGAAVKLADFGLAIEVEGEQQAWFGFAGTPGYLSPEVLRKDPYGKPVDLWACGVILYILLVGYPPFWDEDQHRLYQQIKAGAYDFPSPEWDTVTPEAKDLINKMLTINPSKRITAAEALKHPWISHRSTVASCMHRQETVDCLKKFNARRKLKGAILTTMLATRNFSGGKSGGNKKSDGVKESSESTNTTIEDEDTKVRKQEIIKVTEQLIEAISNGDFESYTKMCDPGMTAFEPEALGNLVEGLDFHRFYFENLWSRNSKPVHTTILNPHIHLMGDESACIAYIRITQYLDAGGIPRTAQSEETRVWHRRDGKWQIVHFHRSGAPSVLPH
Mitogen-activated protein kinase kinase kinase kinase 2, sequence (Q12851 whole entry): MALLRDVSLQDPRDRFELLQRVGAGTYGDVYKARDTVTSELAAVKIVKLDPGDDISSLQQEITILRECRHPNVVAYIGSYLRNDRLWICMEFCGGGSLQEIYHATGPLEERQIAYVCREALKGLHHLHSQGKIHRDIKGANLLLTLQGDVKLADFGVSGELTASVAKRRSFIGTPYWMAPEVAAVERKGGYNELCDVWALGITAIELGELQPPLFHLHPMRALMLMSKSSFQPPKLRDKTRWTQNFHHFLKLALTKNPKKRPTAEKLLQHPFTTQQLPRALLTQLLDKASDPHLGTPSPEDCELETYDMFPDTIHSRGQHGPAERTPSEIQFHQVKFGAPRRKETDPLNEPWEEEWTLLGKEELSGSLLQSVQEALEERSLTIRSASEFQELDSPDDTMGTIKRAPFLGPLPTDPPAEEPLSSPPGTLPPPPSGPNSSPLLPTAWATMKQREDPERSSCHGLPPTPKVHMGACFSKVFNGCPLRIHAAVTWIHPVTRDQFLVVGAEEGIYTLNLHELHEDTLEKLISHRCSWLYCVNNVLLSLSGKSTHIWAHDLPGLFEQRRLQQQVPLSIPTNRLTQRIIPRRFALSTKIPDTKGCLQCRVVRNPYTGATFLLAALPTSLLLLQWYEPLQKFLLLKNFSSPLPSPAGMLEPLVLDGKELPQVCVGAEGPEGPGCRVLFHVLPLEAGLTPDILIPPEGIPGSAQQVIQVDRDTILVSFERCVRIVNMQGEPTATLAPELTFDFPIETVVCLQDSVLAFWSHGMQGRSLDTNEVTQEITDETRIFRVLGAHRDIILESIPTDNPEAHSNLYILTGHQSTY
Insulin-like growth factor 1 receptor, sequence (P08069 31-736 limits assumed): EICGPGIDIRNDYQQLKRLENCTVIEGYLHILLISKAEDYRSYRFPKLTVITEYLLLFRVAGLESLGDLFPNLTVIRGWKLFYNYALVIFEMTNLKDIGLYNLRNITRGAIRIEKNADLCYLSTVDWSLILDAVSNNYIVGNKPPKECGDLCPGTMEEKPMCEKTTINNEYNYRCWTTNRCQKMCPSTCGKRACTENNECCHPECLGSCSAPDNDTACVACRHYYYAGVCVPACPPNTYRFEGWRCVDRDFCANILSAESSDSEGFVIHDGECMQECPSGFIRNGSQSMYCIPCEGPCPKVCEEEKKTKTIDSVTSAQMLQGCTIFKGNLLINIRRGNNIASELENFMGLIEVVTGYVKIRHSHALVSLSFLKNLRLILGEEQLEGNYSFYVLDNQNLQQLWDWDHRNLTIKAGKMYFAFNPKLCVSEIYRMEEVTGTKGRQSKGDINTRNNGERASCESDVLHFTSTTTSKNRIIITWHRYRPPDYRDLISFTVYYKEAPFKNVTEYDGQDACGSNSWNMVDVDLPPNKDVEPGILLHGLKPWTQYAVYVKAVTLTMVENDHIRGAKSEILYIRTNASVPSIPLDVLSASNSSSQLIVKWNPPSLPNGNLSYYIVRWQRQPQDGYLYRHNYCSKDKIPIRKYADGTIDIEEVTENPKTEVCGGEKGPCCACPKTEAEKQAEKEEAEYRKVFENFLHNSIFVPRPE
Insulin-like growth factor 1 receptor, sequence (P08069 741-1367 limits assumed): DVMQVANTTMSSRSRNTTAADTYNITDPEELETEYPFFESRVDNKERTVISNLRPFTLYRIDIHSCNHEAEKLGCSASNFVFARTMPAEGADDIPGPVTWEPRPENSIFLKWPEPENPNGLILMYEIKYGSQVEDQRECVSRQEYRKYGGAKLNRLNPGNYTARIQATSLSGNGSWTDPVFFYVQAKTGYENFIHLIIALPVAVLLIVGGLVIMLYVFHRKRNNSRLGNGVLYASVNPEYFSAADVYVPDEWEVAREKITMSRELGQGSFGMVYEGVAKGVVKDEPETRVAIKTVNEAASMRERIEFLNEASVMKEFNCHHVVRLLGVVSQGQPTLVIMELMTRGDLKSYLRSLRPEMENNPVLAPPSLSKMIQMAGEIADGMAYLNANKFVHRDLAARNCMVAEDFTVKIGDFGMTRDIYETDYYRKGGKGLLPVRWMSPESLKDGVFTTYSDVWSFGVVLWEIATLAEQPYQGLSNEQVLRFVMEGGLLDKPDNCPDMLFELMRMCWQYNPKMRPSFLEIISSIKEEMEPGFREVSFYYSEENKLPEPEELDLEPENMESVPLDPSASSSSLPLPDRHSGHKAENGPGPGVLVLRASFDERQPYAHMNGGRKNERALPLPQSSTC
Serine/threonine-protein kinase PAK 4, sequence (O96013 whole entry): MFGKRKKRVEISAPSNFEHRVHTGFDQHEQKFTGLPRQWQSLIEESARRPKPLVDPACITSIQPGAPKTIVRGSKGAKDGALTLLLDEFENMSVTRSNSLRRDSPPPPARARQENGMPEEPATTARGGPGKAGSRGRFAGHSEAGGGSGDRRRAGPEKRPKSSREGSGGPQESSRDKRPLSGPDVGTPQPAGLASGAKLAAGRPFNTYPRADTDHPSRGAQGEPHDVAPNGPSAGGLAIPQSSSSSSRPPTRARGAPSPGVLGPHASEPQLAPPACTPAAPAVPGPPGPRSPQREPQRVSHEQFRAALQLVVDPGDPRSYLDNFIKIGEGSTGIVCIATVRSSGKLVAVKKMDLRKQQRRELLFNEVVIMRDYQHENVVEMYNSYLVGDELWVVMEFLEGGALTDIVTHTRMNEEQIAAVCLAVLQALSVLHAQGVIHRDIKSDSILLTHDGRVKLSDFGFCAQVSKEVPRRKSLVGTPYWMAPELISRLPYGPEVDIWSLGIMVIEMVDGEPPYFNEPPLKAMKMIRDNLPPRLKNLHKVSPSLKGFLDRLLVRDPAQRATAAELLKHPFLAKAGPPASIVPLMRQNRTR
Death-associated protein kinase 3, sequence (O43293 whole entry): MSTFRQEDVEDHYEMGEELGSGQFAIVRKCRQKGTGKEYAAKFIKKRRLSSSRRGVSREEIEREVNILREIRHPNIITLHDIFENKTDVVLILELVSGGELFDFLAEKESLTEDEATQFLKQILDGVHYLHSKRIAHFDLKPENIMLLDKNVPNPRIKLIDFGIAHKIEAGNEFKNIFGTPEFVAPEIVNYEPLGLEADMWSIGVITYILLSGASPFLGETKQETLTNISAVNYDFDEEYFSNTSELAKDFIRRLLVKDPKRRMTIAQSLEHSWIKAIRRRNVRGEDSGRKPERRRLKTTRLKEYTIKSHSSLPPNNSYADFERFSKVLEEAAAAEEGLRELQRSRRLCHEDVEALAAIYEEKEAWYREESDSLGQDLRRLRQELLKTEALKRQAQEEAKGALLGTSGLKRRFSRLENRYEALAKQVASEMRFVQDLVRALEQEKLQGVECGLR
Dual specificity protein phosphatase 3, sequence (P51452 whole entry): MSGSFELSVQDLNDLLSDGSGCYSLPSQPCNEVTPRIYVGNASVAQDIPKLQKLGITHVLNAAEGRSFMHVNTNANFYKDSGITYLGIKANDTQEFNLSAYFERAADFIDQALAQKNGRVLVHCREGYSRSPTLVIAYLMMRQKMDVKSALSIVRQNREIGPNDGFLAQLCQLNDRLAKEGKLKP
Protein kinase C theta type, sequence (Q04759 whole entry): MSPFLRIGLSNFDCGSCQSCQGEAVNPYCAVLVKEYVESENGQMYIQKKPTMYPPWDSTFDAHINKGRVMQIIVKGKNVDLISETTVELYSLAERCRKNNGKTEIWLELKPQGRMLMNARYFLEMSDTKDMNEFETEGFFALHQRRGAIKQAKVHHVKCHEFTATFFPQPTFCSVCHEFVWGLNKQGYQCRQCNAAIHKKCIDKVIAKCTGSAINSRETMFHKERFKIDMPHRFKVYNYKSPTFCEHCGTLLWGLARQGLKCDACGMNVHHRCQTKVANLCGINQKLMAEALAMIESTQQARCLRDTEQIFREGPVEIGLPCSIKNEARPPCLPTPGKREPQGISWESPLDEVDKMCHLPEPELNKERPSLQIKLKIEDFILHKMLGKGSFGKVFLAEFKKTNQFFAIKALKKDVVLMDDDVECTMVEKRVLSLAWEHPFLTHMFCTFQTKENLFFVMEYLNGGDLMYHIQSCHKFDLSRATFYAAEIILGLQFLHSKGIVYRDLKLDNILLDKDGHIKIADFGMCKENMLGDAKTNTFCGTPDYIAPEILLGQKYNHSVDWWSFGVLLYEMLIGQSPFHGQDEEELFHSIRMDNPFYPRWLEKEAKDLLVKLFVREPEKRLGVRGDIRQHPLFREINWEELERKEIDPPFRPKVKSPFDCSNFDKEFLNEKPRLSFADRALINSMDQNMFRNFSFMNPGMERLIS

Regarding `O=C(NNc1cc(N2CCCC2)nc(N2CCCC2)n1)c1ccc([N+](=O)[O-])cc1`, the IC50 – broadly, the point on the concentration scale where inhibition reaches its midpoint – on Caspase-3 is > 100000 nM (inactive); in test [1], 1430 nM (active).

As for `O=C(Cc1cccs1)Nc1nc2ccccc2s1`, the Ki (usually the dissociation constant of the complex between target and ligand, obtained from inhibition or displacement) is > 5010 nM (inactive) in [2]; > 2510 nM (inactive) in test [3]; 1580 nM (active) in test [4]; 3160 nM (active) in test [5]; 2510 nM (active) in [6]; 2000 nM (active) in [7]. For the same compound, the Ki is 3160 nM (active) in test [8] and 5010 nM (active) in test [9].

`O=S(=O)(O)c1cccc2c(N=Nc3ccc(O)c4ncccc34)cccc12`: the IC50 in [10] was 2280 nM (active). The EC50 (in general, the midpoint of the concentration-response curve) on Insulin-degrading enzyme is 8800 nM (active).
